# Reference: publication PMC6691788, “Design and synthesis of phthalazine-based compounds as potent anticancer agents with potential antiangiogenic activity via VEGFR-2 inhibition” (Journal of Enzyme Inhibition and Medicinal Chemistry, 2019)
# Columns and labels:
# MCF7 = test: NCI 60 cell panel SRB screen; assay type: cell-based; details: Homo sapiens; for GI50: MCF7; for IC (TGI): MCF7, read-out: TGI; for activity at 10 µM: MCF7, read-out: percent cell growth promotion; for CC50: MCF7, 5 log dose, 48 h, read-out: LC50 (the source's name)
# COLO 205 = test: NCI 60 cell panel SRB screen; assay type: cell-based; details: Homo sapiens; for GI50 / IC (TGI) / CC50: COLO 205, 5 log dose; for CC50: 48 h, read-out: LC50 (the source's name); for activity at 10 µM: COLO 205, single dose 10 μM, read-out: percent cell growth promotion
# SF-268 = test: NCI 60 cell panel SRB screen; assay type: cell-based; details: Homo sapiens; for GI50 / IC (TGI) / CC50: SF-268, 5 log dose; for CC50: 48 h, read-out: LC50 (the source's name); for activity at 10 µM: SF-268, single dose 10 μM, read-out: percent cell growth promotion
# DU-145 = test: NCI 60 cell panel SRB screen; assay type: cell-based; details: Homo sapiens; for GI50 / IC (TGI) / CC50: DU-145, 5 log dose; for CC50: 48 h, read-out: LC50 (the source's name); for activity at 10 µM: DU-145, single dose 10 μM, read-out: percent cell growth promotion
# LOX IMVI = test: NCI 60 cell panel SRB screen; assay type: cell-based; details: Homo sapiens; for CC50: 5 log dose, 48 h, read-out: LC50 (the source's name); for IC (TGI): read-out: TGI; for activity at 10 µM: read-out: percent cell growth promotion
# UO-31 = test: NCI 60 cell panel SRB screen; assay type: cell-based; details: Homo sapiens; for GI50 / IC (TGI) / CC50: UO-31, 5 log dose; for CC50: 48 h, read-out: LC50 (the source's name); for activity at 10 µM: UO-31, single dose 10 μM, read-out: percent cell growth promotion
# EKVX = test: NCI 60 cell panel SRB screen; assay type: cell-based, human; details: for GI50 / IC (TGI) / LC50: Homo sapiens, 5 log dose; for LC50: 48 h; for percent cell growth promotion: single dose 10 μM
# HOP-92 = test: NCI 60 cell panel SRB screen; assay type: cell-based; details: Homo sapiens; for GI50 / IC (TGI) / CC50: HOP-92, 5 log dose; for CC50: 48 h, read-out: LC50 (the source's name); for activity at 10 µM: HOP-92, single dose 10 μM, read-out: percent cell growth promotion
# SK-MEL-2 = test: NCI 60 cell panel SRB screen; assay type: cell-based; details: for GI50 / IC (TGI) / CC50: Homo sapiens; for IC (TGI): read-out: TGI; for CC50: SK-MEL-2, 5 log dose, 48 h, read-out: LC50 (the source's name); for percent cell growth promotion: SK-MEL-2, single dose 10 μM
# HT29 = test: NCI 60 cell panel SRB screen; assay type: cell-based; details: Homo sapiens, HT-29; for GI50 / IC (TGI) / CC50: HT29, 5 log dose; for CC50: 48 h, read-out: LC50 (the source's name); for activity at 10 µM: HT29, single dose 10 μM, read-out: percent cell growth promotion
# NCI-H322M = test: NCI 60 cell panel SRB screen; assay type: cell-based; details: Homo sapiens; for GI50 / IC (TGI) / CC50: 5 log dose; for CC50: 48 h, read-out: LC50 (the source's name); for activity at 10 µM: single dose 10 μM, read-out: percent cell growth promotion
# full NCI 60 cell panel = test: NCI 60 cell panel SRB screen, whole panel; assay type: cell-based, human; details: Homo sapiens, 60 cell, NCI 5-log dose, full 60 cell panel; read-out: GI50 values, range over the tested cell lines
# SF-539 = test: NCI 60 cell panel SRB screen; assay type: cell-based, human; details: for GI50 / IC (TGI) / CC50: Homo sapiens, SF-539, 5 log dose; for CC50: 48 h, read-out: LC50 (the source's name); for percent cell growth promotion: SF-539, single dose 10 μM
# A498 = test: NCI 60 cell panel SRB screen; assay type: cell-based; details: Homo sapiens; for GI50 / IC (TGI) / CC50: A498, 5 log dose; for CC50: 48 h, read-out: LC50 (the source's name); for activity at 10 µM: A498, single dose 10 μM, read-out: percent cell growth promotion
# M14 = test: NCI 60 cell panel SRB screen; assay type: cell-based; details: Homo sapiens; for GI50: M14; for IC (TGI): M14, read-out: TGI; for activity at 10 µM: M14, read-out: percent cell growth promotion; for CC50: M14, 5 log dose, 48 h, read-out: LC50 (the source's name)
# OVCAR-8 = test: NCI 60 cell panel SRB screen; assay type: cell-based; details: Homo sapiens; for GI50 / IC (TGI) / CC50: OVCAR-8, 5 log dose; for CC50: 48 h, read-out: LC50 (the source's name); for activity at 10 µM: OVCAR-8, single dose 10 μM, read-out: percent cell growth promotion
# SF-295 = test: NCI 60 cell panel SRB screen; assay type: cell-based; details: Homo sapiens; for GI50 / IC (TGI) / CC50: SF-295, 5 log dose; for CC50: 48 h, read-out: LC50 (the source's name); for activity at 10 µM: SF-295, single dose 10 μM, read-out: percent cell growth promotion
# NCI/ADR-RES = test: NCI 60 cell panel SRB screen; assay type: cell-based; details: Homo sapiens; for GI50 / IC (TGI) / CC50: 5 log dose; for CC50: 48 h, read-out: LC50 (the source's name); for activity at 10 µM: single dose 10 μM, read-out: percent cell growth promotion
smiles,measurement,setting,value
"O=C(Nc1ccccc1)Nc1ccc(Oc2nnc(Cl)c3ccccc23)cc1 [Compound 13a, 1–(4-(4-Chlorophthalazin-1-yloxy)phenyl)-3-phenylurea]",GI50,MCF7,1.32 µM
same,IC (TGI),MCF7,6.32 µM
same,activity at 10 µM,MCF7,-4.15%
same,CC50,MCF7,20.6 µM
same,GI50,COLO 205,5.24 µM
same,IC (TGI),COLO 205,> 25 µM
same,CC50,COLO 205,> 25 µM
same,activity at 10 µM,COLO 205,35.1%
same,GI50,SF-268,2.89 µM
same,IC (TGI),SF-268,7.57 µM
same,CC50,SF-268,19.8 µM
same,activity at 10 µM,SF-268,25.9%
same,GI50,DU-145,3.01 µM
same,IC (TGI),DU-145,10.5 µM
same,CC50,DU-145,> 25 µM
same,activity at 10 µM,DU-145,39%
same,GI50,LOX IMVI,3.46 µM
same,CC50,LOX IMVI,13.4 µM
same,IC (TGI),LOX IMVI,6.08 µM
same,activity at 10 µM,LOX IMVI,32.1%
same,GI50,UO-31,3.98 µM
same,IC (TGI),UO-31,19.6 µM
same,CC50,UO-31,> 25 µM
same,activity at 10 µM,UO-31,34.9%
same,GI50,EKVX,2.31 µM
same,IC (TGI),EKVX,12.1 µM
same,LC50,EKVX,> 25 µM
same,percent cell growth promotion,EKVX,29.96%
same,GI50,HOP-92,3.09 µM
same,IC (TGI),HOP-92,11.3 µM
same,CC50,HOP-92,> 25 µM
same,activity at 10 µM,HOP-92,-7.51%
same,GI50,SK-MEL-2,3.9 µM
same,IC (TGI),SK-MEL-2,13.2 µM
same,CC50,SK-MEL-2,> 25 µM
same,percent cell growth promotion,SK-MEL-2,9.53%
same,GI50,HT29,5.26 µM
same,IC (TGI),HT29,> 25 µM
same,CC50,HT29,> 25 µM
same,activity at 10 µM,HT29,23.8%
same,GI50,NCI-H322M,2.19 µM
same,IC (TGI),NCI-H322M,> 25 µM
same,CC50,NCI-H322M,> 25 µM
same,activity at 10 µM,NCI-H322M,47.3%
same,GI50,full NCI 60 cell panel,0.15 to 8.41 µM
same,GI50,SF-539,2.81 µM
same,IC (TGI),SF-539,6.4 µM
same,CC50,SF-539,14.6 µM
same,percent cell growth promotion,SF-539,-22.02%
same,GI50,A498,3.45 µM
same,IC (TGI),A498,13.1 µM
same,CC50,A498,> 25 µM
same,activity at 10 µM,A498,49.2%
same,GI50,M14,6.15 µM
same,IC (TGI),M14,> 25 µM
same,activity at 10 µM,M14,46.2%
same,CC50,M14,> 25 µM
same,GI50,OVCAR-8,2.6 µM
same,IC (TGI),OVCAR-8,6.53 µM
same,CC50,OVCAR-8,16.4 µM
same,activity at 10 µM,OVCAR-8,15.5%
same,GI50,SF-295,2.07 µM
same,IC (TGI),SF-295,5.63 µM
same,CC50,SF-295,13.5 µM
same,activity at 10 µM,SF-295,31.2%
same,GI50,NCI/ADR-RES,2.63 µM
same,IC (TGI),NCI/ADR-RES,6.39 µM
same,CC50,NCI/ADR-RES,15.5 µM
same,activity at 10 µM,NCI/ADR-RES,16.9%
"COc1cccc(NCc2nnc(Nc3ccc(Cl)cc3)c3ccccc23)c1 [Compound 16d, N-(4-Chlorophenyl)-4-((3-methoxyphenylamino)methyl)phthalazin-1-amine]",GI50,MCF7,0.93 µM
same,IC (TGI),MCF7,6.4 µM
same,activity at 10 µM,MCF7,-1.96%
same,CC50,MCF7,24.9 µM
same,GI50,COLO 205,0.49 µM
same,IC (TGI),COLO 205,4.01 µM
same,CC50,COLO 205,15.4 µM
same,activity at 10 µM,COLO 205,-22.2%
same,GI50,SF-268,2.05 µM
same,IC (TGI),SF-268,10.5 µM
same,CC50,SF-268,> 25 µM
same,activity at 10 µM,SF-268,2.52%
same,GI50,DU-145,2.4 µM
same,IC (TGI),DU-145,6.52 µM
same,CC50,DU-145,17.2 µM
same,activity at 10 µM,DU-145,8.3%
same,GI50,LOX IMVI,1.11 µM
same,CC50,LOX IMVI,12.8 µM
same,IC (TGI),LOX IMVI,4.83 µM
same,activity at 10 µM,LOX IMVI,-58.7%
same,GI50,UO-31,0.6 µM
same,IC (TGI),UO-31,5.28 µM
same,CC50,UO-31,> 25 µM
same,activity at 10 µM,UO-31,-42.5%
same,GI50,EKVX,0.58 µM
same,IC (TGI),EKVX,6.4 µM
same,LC50,EKVX,> 25 µM
same,percent cell growth promotion,EKVX,-0.28%
same,GI50,HOP-92,0.32 µM
same,IC (TGI),HOP-92,2.91 µM
same,CC50,HOP-92,> 25 µM
same,activity at 10 µM,HOP-92,-32.8%
same,GI50,SK-MEL-2,0.7 µM
same,IC (TGI),SK-MEL-2,3.98 µM
same,CC50,SK-MEL-2,11 µM
same,percent cell growth promotion,SK-MEL-2,-34.44%
same,GI50,HT29,0.34 µM
same,IC (TGI),HT29,3.62 µM
same,CC50,HT29,12 µM
same,activity at 10 µM,HT29,-21%
same,GI50,NCI-H322M,1.4 µM
same,IC (TGI),NCI-H322M,7.85 µM
same,CC50,NCI-H322M,> 25 µM
same,activity at 10 µM,NCI-H322M,3.32%
same,GI50,full NCI 60 cell panel,0.15 to 8.41 µM
same,GI50,SF-539,3.07 µM
same,IC (TGI),SF-539,6.56 µM
same,CC50,SF-539,14 µM
same,percent cell growth promotion,SF-539,-10.19%
same,GI50,A498,1.27 µM
same,IC (TGI),A498,4.42 µM
same,CC50,A498,11.5 µM
same,activity at 10 µM,A498,-26.8%
same,GI50,M14,0.85 µM
same,IC (TGI),M14,4.69 µM
same,activity at 10 µM,M14,-15.7%
same,CC50,M14,12.9 µM
same,GI50,OVCAR-8,3.61 µM
same,IC (TGI),OVCAR-8,14.7 µM
same,CC50,OVCAR-8,> 25 µM
same,activity at 10 µM,OVCAR-8,3.02%
same,GI50,SF-295,1.94 µM
same,IC (TGI),SF-295,8.24 µM
same,CC50,SF-295,> 25 µM
same,activity at 10 µM,SF-295,-22.6%
same,GI50,NCI/ADR-RES,2.55 µM
same,IC (TGI),NCI/ADR-RES,> 25 µM
same,CC50,NCI/ADR-RES,> 25 µM
same,activity at 10 µM,NCI/ADR-RES,-5.42%
